IC50 data for three molecules are collected here from EP4782434A1, “N-SULFONYL CARBOXAMIDE COMPOUND, AND PREPARATION METHOD THEREFOR AND USE THEREOF” (Nutshell Therapeutics (Shanghai) Co., Ltd., priority 2023, dated 2025).

Bounds are passed on as bounds.

Test [1] has as its target T1, Polθ ATPase (Homo sapiens, UniProt O75417).
T1 construct: purified truncated POLQ-N protein (aa 1-894, N-terminal 6-His tag); 6-His (N)
The test is described as follows: Polθ ATPase activity assay (ADP-Glo Kinase Assay kit). The format is biochemical. The conditions noted are these: truncated POLQ-N protein (aa 1-894) 1 nM, 50 nM ssDNA, 50 µM ATP. As to the method:
The inhibitory efficiency of the compounds of formula (I) against Polθ ATPase activity was determined using the ADP-Glo Kinase Assay kit (Promega, V9101). […] The starting (final) concentration was 100 nM, followed by a 3-fold serial dilution for a total of 10 concentration points in duplicate (n=2). 5 μL of purified […], N-terminal 6-His tag) was added to each well. After centrifugation at 1000 rpm for 1 minute, the plate was incubated at 25°C for 10 minutes. 5 μL of substrate reaction solution (containing ATP & ssDNA) was added to each well, and the reaction was carried out at 25°C for 60 minutes. 5 μL of ADP-Glo Reagent was added to each well. After centrifugation at 1000 rpm for 1 minute, the plate was incubated at 25°C for 40 minutes. 10 μL of detection solution was added to each well. After centrifugation at 1000 rpm for 1 minute, the plate was incubated at 25°C for 40 minutes. Luminescence signals were recorded using a microplate reader (BMG, PHERAstar FSX). The final reaction system contained 1 nM of POLQ-N enzyme; 50 nM of ssDNA ([NT]); 50 μM of ATP; and 1% DMSO. The inhibition percentage (%) of the compound at each concentration was calculated using the RFU values normalized against the control wells within each assay plate. Table 1: Inhibitory activity of compounds against Polθ ATPase
In general terms: ADP-Glo first removes unused ATP, then detects ADP through luciferase.

Test [2] relates to DLD-1 BRCA2-/- cells. The test is described as follows: DLD-1 BRCA2-/- cell proliferation assay (CellTiter-Glo, 10 days incubation). The conditions noted are these: Homo sapiens, 240 h, DLD-1 BRCA2-/- cell line, total incubation period of 10 days, read-out: DLD1 BRCA2^-/- IC50. In kind it is cell-based. An excerpt: The anti-proliferative effect of the compounds on the human colorectal adenocarcinoma cell line DLD-1 BRCA2^-/- method.
• DLD-1 (purchased from ATCC, Cat. No.: CCL-221, Batch No.: 70033255); • RPMI1640 (purchased from Invitrogen, Cat. No.: 11875-085); • 0.25% Trypsin-EDTA (purchased from Invitrogen, Cat. No.: 25200-072); • Penicillin-Streptomycin solution (purchased from Hyclone, Cat. No.: SV30010); • FBS (purchased from BI, Cat. No.: 04-002-1A); • DMSO (purchased from Sigma, Cat. No.: D4540-1L); • 96-well plate (purchased from Corning, Cat. No.: CLS3903); • CellTiter-Glo reagent (purchased from Promega, Cat. No.: G7558).
The anti-proliferative effect of the compounds on a human colorectal adenocarcinoma cell line was evaluated using an ATP quantification method, wherein the measured activity correlates well with the number of viable cells. The genetically edited cell line DLD-1 BRCA2^-/- was cultured in RPMI 1640 medium (Invitrogen, 11875-085) supplemented with 10% (v/v) fetal bovine serum (BI, 04-002-1A). The cell line was cultured according to the standard instructions of the American Type Culture Collection (ATCC) and identified via short tandem repeat (STR) genotyping.
In the proliferation assay, cells were harvested and resuspended in cell culture medium. Cell density was determined using a cell counter. An appropriate volume of cell suspension was aspirated from the centrifuge tube to prepare a plating working solution (150 cells/100 µL for the DLD-1 BRCA2^-/- cell line). 100 µL of the cell suspension was seeded into each well of a 96-well plate (Corning, 3603) and incubated overnight in an incubator. The diluted test compound solutions were added to the wells. On the fourth and seventh days of compound incubation, the medium was replaced with fresh culture medium, and the compounds were re-administered, for a total incubation period of 10 days. Following incubation, the cell culture plates were removed and equilibrated to room temperature. 100 µL of CellTiter-Glo (Promega, G7558) was added to each well, and the plate was incubated at room temperature for 30 minutes. Data were read using a microplate reader (PerkinElmer, Enspire) in 96-well luminescence mode. Data analysis, curve fitting, and reporting were performed using the dose-response one-site 205 model of IDBS XL fit. Table 2: Proliferation inhibitory activity of compounds against DLD-1 BRCA2-/- cells

The test system of test [3] is Theta-mediated end joining (TMEJ) process in HEK293T cells. Description: TMEJ reporter assay (NanoGlo luciferase). The format is cell-based. The note with it: Homo sapiens, HEK-293T, HEK293T cells electroporated with TMEJ substrate, 24 hours. As to the method:
The inhibitory effect of the compounds on the Theta-mediated end joining (TMEJ) process was evaluated.
(1) HEK293T cells were cultured in DMEM supplemented with 10% heat-inactivated fetal bovine serum (FBS) and 1% penicillin-streptomycin (PS). (2) Prior to startup, the Neon transfection system was disinfected, and E2 and R buffers were equilibrated to room temperature. (3) Culture medium without antibiotics was pre-warmed. (4) Cells in the flask reaching 80-90% confluency were trypsinized, neutralized with culture medium, centrifuged, and counted. (5) For transfection using a 100 µL electroporation tip, 2 × 10^6 cells were taken, washed once with DPBS (without Mg^2+ and Ca^2+), centrifuged at 1000 rpm for 5 min, and the supernatant was discarded. The number of cells and volume may be increased as required. (6) The Neon system was set up; a Neon tube was inserted into the Neon pipette and E2 buffer was added. (7) 10 µg of TMEJ substrate was added to 100 µL of R solution; the volume may be increased as required. (8) Cells were resuspended in DNA buffer, and electroporation was initiated according to the following parameters:
(9) The cells were loaded into antibiotic-free culture medium and mixed gently. (10) Steps (8)-(9) were repeated as necessary, and cells were seeded into 384-well plates at a density of 40,000 cells/well in 40 µL of culture medium. (11) The plates were incubated in a humidified CO2 incubator at 37°C for 24 hours. (12) NanoGlo reagent was warmed to room temperature, and NanoGlo buffer was mixed with the substrate at a ratio of 50:1. (13) The cell culture plates were equilibrated at room temperature for 10 minutes. (14) 40 µL of NanoGlo substrate buffer was added to each well, followed by shaking at 300 rpm for 3 minutes protected from light. (15) Signals were read via a BMG PHERAstar FSX.
In general terms: In a reporter assay the amount or activity of a reporter protein is the signal.

T1 sequence (O75417 1-894): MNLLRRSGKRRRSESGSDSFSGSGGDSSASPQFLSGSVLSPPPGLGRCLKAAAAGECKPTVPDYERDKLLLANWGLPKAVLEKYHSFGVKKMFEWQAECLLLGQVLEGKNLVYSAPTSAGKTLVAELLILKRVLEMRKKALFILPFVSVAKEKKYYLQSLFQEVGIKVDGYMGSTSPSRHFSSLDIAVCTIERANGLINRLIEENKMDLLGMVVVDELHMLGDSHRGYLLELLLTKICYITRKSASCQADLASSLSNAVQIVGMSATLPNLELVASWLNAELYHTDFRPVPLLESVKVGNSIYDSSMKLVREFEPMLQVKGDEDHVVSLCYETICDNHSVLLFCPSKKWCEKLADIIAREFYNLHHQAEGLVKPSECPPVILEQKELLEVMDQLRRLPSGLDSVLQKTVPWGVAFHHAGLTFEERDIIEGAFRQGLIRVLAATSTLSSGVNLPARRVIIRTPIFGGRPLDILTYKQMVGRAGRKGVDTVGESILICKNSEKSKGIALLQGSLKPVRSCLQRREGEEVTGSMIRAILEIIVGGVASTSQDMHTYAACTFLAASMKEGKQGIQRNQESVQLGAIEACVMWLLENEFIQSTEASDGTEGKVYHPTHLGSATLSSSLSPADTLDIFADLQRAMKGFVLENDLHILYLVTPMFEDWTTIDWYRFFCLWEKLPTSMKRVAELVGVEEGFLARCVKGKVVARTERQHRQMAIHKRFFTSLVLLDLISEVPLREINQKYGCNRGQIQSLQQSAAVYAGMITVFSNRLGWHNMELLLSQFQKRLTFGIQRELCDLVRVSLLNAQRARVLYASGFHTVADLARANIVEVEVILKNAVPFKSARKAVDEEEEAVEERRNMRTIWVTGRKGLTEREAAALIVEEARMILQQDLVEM

Regarding `COc1cnc(Cl)cc1-c1cc(C)ncc1C(=O)Nc1nnc(OC[C@H]2COCCO2)s1` [Ref. 1, reference compound], the IC50 in test [1] (class symbols) is 2 to 10 nM; in test [1] (specific values), 2.2 nM; in test [2], 21 nM; in test [3], 5 nM.
On to `[2H]C([2H])([2H])O[C@@H](C)c1ccc(CS(=O)(=O)NC(=O)c2ccc(C([2H])([2H])[2H])cc2-c2cc(C(F)F)ncc2OC)cc1` [cpd-16, (S)-2-(2-(Difluoromethyl)-5-methoxypyridin-4-yl)-N-((4-(1-(methoxy-d3)ethyl)benzyl)sulfonyl)-4-(methyl-d3)benzamide], for which the IC50 in test [1] (class symbols) is not above 2 nM; in test [1] (specific values), 0.39 nM; in test [2], 24 nM; in test [3], 2 nM.
For `[2H]C([2H])([2H])O[C@@H](C)c1ccc(CS(=O)(=O)NC(=O)c2ccc(C([2H])([2H])[2H])cc2-c2cc(Cl)ncc2OC)cc1` [cpd-17, (S)-2-(2-Chloro-5-methoxypyridin-4-yl)-N-((4-(1-(methoxy-d3)ethyl)benzyl)sulfonyl)-4-(methyl-d3)benzamide], the IC50 in test [1] (class symbols) is not above 2 nM; in test [1] (specific values) it was 1.4 nM; in test [2], 16 nM; in test [3] it was 1.8 nM.
